Values quoted from earlier work, collected in patent publication EP4537663A1, “INCLUSION COMPLEX COMPRISING TRYPTOPHAN AND ARGININE; FERTILISING, BIOSTIMULANT AND ANTIMICROBIAL COMPOSITION COMPRISING SAME; PRODUCTION METHOD THEREOF; AND USE THEREOF” (Universidad de Valladolid, priority 2022, dated 2023).
Values after ≈ are worked out from the molar mass of the structure shown.

Details: at 25°C

Question: For `N[C@@H](Cc1c[nH]c2ccccc12)C(=O)O` [tryptophan], which solubility in water is on record?
Answer: ~11.4 mg/mL (≈ 55.8 mM)
